Usually mortality stands for the percentage killed.

In assay [1] the test system is Laodelphax striatella. The experiment in a line: Insecticidal test on Laodelphax striatella (rice seedling dip). The format is in vivo. The conditions noted are these: Laodelphax striatellus, 192 h, rice seedlings dipped 30 seconds, 3rd-instar larvae, 8 days after inoculation, read-out: insecticidal effect (corrected mortality rate), activity level. An excerpt:
Insecticidal test on Laodelphax striatella
The heterocycle-bound condensed heterocyclic compounds represented by the general formula (1) of the present invention or salts thereof were separately dispersed in water and diluted to 500 ppm. Rice plant seedlings (variety: Nihonbare) were dipped in the agrochemical dispersions for 30 seconds. After air-dried, each seedling was put into a separate glass test tube and inoculated with ten 3rd-instar larvae of Laodelphax striatella, and then the glass test tubes were capped with cotton plugs. At 8 days after the inoculation, the numbers of surviving larvae and dead larvae were counted, the corrected mortality rate was calculated according to the formula shown below, and the insecticidal effect was evaluated according to the criteria shown below. Corrected mortality rate (%)=100×(Survival rate in a non-treatment plot−Survival rate in a treatment plot)/Survival rate in a non-treatment plot [Math. 2] Criteria A: the corrected mortality rate is 100%. B: the corrected mortality rate is 90 to 99%. C: the corrected mortality rate is 80 to 89%. D: the corrected mortality rate is 50 to 79%.

The test system of assay [2] is Plutella xylostella. In words: Insecticidal test on Plutella xylostella (dip of Chinese cabbage seedlings with laid eggs). The format is in vivo. The conditions noted are these: 144 h, seedlings with laid eggs dipped about 30 seconds, 25° C., 6 days after dip treatment, read-out: insecticidal effect (corrected mortality rate), activity level. From the text:
Insecticidal Test on Plutella xylostella
Adults of Plutella xylostella were released onto Chinese cabbage seedlings and allowed to lay eggs thereon. At 2 days after the release of the adults, the Chinese cabbage seedlings with laid eggs were dipped for about 30 seconds in agrochemical dispersions diluted to 500 ppm, each of which contained a different kind of heterocycle-bound condensed heterocyclic compound represented by the general formula (1) of the present invention as an active ingredient. After air-dried, the seedlings were kept in a thermostatic chamber at 25° C. At 6 days after the dip treatment, the number of hatched larvae per plot was counted, the mortality rate was calculated according to the formula shown below, and the insecticidal effect was evaluated according to the criteria of Test Example 2. This test was conducted in triplicate using 10 adults of Plutella xylostella per plot. Corrected mortality rate (%)=100×(Number of hatched larvae in a non-treatment plot−Number of hatched larvae in a treatment plot)/Number of hatched larvae in a non-treatment plot [Math. 3]

On to `CCS(=O)(=O)c1cc(-c2nc(-c3ccccc3)no2)cnc1-c1nc2cc(C(F)(F)C(F)(F)F)nnc2n1C` [Compound 2-56, 5-{2-(3-Methyl-6-pentafluoroethyl-3H-imidazo[4,5-C]pyridazin-2-yl)-3-(ethylsulfonyl)pyridin-5-yl}-3-phenyl-1,2,4-oxadiazole], for which the mortality at 500 ppm in assay [1] and in assay [2] was 100% throughout.
As for `CCS(=O)(=O)c1cc(-c2noc(C(F)(F)F)n2)cnc1-c1nc2cc(C(F)(F)C(F)(F)F)nnc2n1C` [Compound 1-41, 3-{2-(3-Methyl-6-pentafluoroethyl-3H-imidazo[4,5-C]pyridazin-2-yl)-3-(ethylsulfonyl)pyridin-5-yl}-5-trifluoromethyl-1,2,4-oxadiazole], the mortality at 500 ppm in assay [1] and in assay [2] was 100% throughout.

These data come from patent publication US11208410B2, “Heterocycle-bound condensed heterocyclic compound or salt thereof, agricultural and horticultural insecticide comprising the compound, and method for using the insecticide” (Nihon Nohyaku Co., Ltd., priority 2016, dated 2021).
